Test results published in the NIST ThermoML archive (doi:10.1016/j.jct.2015.12.025).
Numbers after ± are expanded uncertainties.

Key:
[1] = refractive index (Na D-line) (dimensionless); xn = mol fraction of the nth substance listed; conditions: 102 kPa, Liquid, Standard Abbe refractometry
[2] = xn = mol fraction of the nth substance listed; conditions: 102 kPa, Liquid, Vibrating tube method

C[Si]1(CCC(F)(F)F)O[Si](C)(CCC(F)(F)F)O[Si](C)(CCC(F)(F)F)O1 (stereo not given) + O=[N+]([O-])c1ccccc1
Conditions	mass density, 308.15 K [kg/m3]	mass density, 313.15 K [kg/m3]	mass density, 318.15 K [kg/m3]	mass density, 323.15 K [kg/m3]	refractive index, 308.15 K	refractive index, 313.15 K	refractive index, 318.15 K	refractive index, 323.15 K
[1], x1 = 0.05	–	–	–	–	1.51601 ± 0.00036	1.51362 ± 0.00036	1.51123 ± 0.00036	1.50882 ± 0.00036
[1], x1 = 0.0999	–	–	–	–	1.49288 ± 0.00036	1.49054 ± 0.00036	1.48816 ± 0.00036	1.48586 ± 0.00036
[1], x1 = 0.1499	–	–	–	–	1.47398 ± 0.00035	1.47168 ± 0.00035	1.46935 ± 0.00035	1.46705 ± 0.00035
[1], x1 = 0.1919	–	–	–	–	1.46058 ± 0.00035	1.4583 ± 0.00035	1.45605 ± 0.00035	1.45377 ± 0.00035
[1], x1 = 0.2499	–	–	–	–	1.44494 ± 0.00035	1.4427 ± 0.00035	1.44048 ± 0.00035	1.43827 ± 0.00035
[1], x1 = 0.2999	–	–	–	–	1.43355 ± 0.00035	1.43137 ± 0.00035	1.42916 ± 0.00035	1.42695 ± 0.00035
[1], x1 = 0.3501	–	–	–	–	1.42369 ± 0.00035	1.42151 ± 0.00035	1.41931 ± 0.00035	1.41713 ± 0.00035
[1], x1 = 0.3999	–	–	–	–	1.41513 ± 0.00035	1.41296 ± 0.00035	1.41082 ± 0.00035	1.40865 ± 0.00035
[1], x1 = 0.4499	–	–	–	–	1.40755 ± 0.00035	1.4054 ± 0.00035	1.40325 ± 0.00035	1.40109 ± 0.00035
[1], x1 = 0.5008	–	–	–	–	1.4007 ± 0.00035	1.39858 ± 0.00035	1.39644 ± 0.00035	1.39433 ± 0.00035
[1], x1 = 0.55	–	–	–	–	1.39478 ± 0.00035	1.3927 ± 0.00035	1.39053 ± 0.00035	1.38845 ± 0.00035
[1], x1 = 0.6001	–	–	–	–	1.38938 ± 0.00035	1.38728 ± 0.00035	1.38519 ± 0.00035	1.3831 ± 0.00035
[1], x1 = 0.6501	–	–	–	–	1.38448 ± 0.00035	1.38239 ± 0.00035	1.38032 ± 0.00035	1.37824 ± 0.00035
[1], x1 = 0.6997	–	–	–	–	1.38006 ± 0.00035	1.378 ± 0.00035	1.37594 ± 0.00035	1.37384 ± 0.00035
[1], x1 = 0.75	–	–	–	–	1.376 ± 0.00035	1.37391 ± 0.00035	1.37188 ± 0.00035	1.36984 ± 0.00035
[1], x1 = 0.8002	–	–	–	–	1.37227 ± 0.00035	1.37021 ± 0.00035	1.36817 ± 0.00035	1.36612 ± 0.00035
[1], x1 = 0.8498	–	–	–	–	1.36887 ± 0.00035	1.36681 ± 0.00035	1.36478 ± 0.00035	1.36274 ± 0.00035
[1], x1 = 0.9002	–	–	–	–	1.36567 ± 0.00035	1.36365 ± 0.00035	1.36163 ± 0.00035	1.35959 ± 0.00035
[1], x1 = 0.9492	–	–	–	–	1.36284 ± 0.00035	1.36084 ± 0.00035	1.35878 ± 0.00035	1.35679 ± 0.00035
[1], x1 = 1	–	–	–	–	1.36011 ± 0.00035	1.35808 ± 0.00035	1.35609 ± 0.00035	1.35407 ± 0.00035
[2], x1 = 0.05	1199.58 ± 1	1194.53 ± 1	1189.25 ± 1	1184.09 ± 1	–	–	–	–
[2], x1 = 0.0999	1207.93 ± 1	1202.66 ± 1	1197.26 ± 1	1191.9 ± 1	–	–	–	–
[2], x1 = 0.1499	1214.25 ± 1	1208.83 ± 1	1203.23 ± 1	1197.73 ± 1	–	–	–	–
[2], x1 = 0.1919	1218.36 ± 1	1212.79 ± 1	1207.17 ± 1	1201.58 ± 1	–	–	–	–
[2], x1 = 0.2499	1222.85 ± 1	1217.11 ± 1	1211.37 ± 1	1205.62 ± 1	–	–	–	–
[2], x1 = 0.2999	1225.81 ± 1	1220.01 ± 1	1214.12 ± 1	1208.26 ± 1	–	–	–	–
[2], x1 = 0.3501	1228.12 ± 1	1222.19 ± 1	1216.28 ± 1	1210.32 ± 1	–	–	–	–
[2], x1 = 0.3999	1229.99 ± 1	1224 ± 1	1218.01 ± 1	1211.97 ± 1	–	–	–	–
[2], x1 = 0.4499	1231.5 ± 1	1225.36 ± 1	1219.29 ± 1	1213.19 ± 1	–	–	–	–
[2], x1 = 0.5008	1232.67 ± 1	1226.56 ± 1	1220.4 ± 1	1214.21 ± 1	–	–	–	–
[2], x1 = 0.55	1233.65 ± 1	1227.39 ± 1	1221.21 ± 1	1215 ± 1	–	–	–	–
[2], x1 = 0.6001	1234.37 ± 1	1228.07 ± 1	1221.84 ± 1	1215.54 ± 1	–	–	–	–
[2], x1 = 0.6501	1234.9 ± 1	1228.58 ± 1	1222.33 ± 1	1216 ± 1	–	–	–	–
[2], x1 = 0.6997	1235.32 ± 1	1229.04 ± 1	1222.69 ± 1	1216.31 ± 1	–	–	–	–
[2], x1 = 0.75	1235.76 ± 1	1229.34 ± 1	1222.98 ± 1	1216.56 ± 1	–	–	–	–
[2], x1 = 0.8002	1236.01 ± 1	1229.55 ± 1	1223.17 ± 1	1216.72 ± 1	–	–	–	–
[2], x1 = 0.8498	1236.19 ± 1	1229.72 ± 1	1223.28 ± 1	1216.78 ± 1	–	–	–	–
[2], x1 = 0.9002	1236.26 ± 1	1229.82 ± 1	1223.34 ± 1	1216.83 ± 1	–	–	–	–
[2], x1 = 0.9492	1236.47 ± 1	1229.88 ± 1	1223.44 ± 1	1216.88 ± 1	–	–	–	–
[2], x1 = 1	1236.63 ± 1	1230.05 ± 1	1223.55 ± 1	1216.99 ± 1	–	–	–	–
